Legend:
[1] = In vitro inhibition of calcium phosphate crystallization in human plasma (spectrophotometric); type: biochemical; settings: 0-100 μM, 1.5 mM phosphate, 12.5 mM calcium, pH 7.4, 30 min, rt, read-out: Relative Potency (EC50, inhibition of calcium phosphate crystallization)
Procedure: The in vitro efficacy of the IP4-4,6 substituted derivatives (e.g., Compounds 1 to 53) of the invention on the inhibition of calcium phosphate crystallization in human plasma samples was evaluated according to a spectrophotometric assay previously described in the art (Ferrer M, et al., Sci Rep 2017; 7:6858, doi:10.1038/s41598-017-07203-x).
A 96-well plate was employed. Plasma was spiked (1 volume of the IP4-4,6 substituted derivatives of the invention per 19 volumes of plasma) with increasing concentrations of the derivatives in the range of 0-100 μM. Plasma was then centrifuged at 10,000 g at rt and subsequently mixed with a mixture of 5 mM hydrogen phosphate and 41.67 mM calcium to attain final concentrations of 1.5 mM phosphate and 12.5 mM calcium, respectively. All reagent solutions were filtered, and pH adjusted to 7.4.
Crystallization of calcium phosphate was monitored spectrophotometrically for 30 min at rt by measuring the increments in absorbance at 550 nm using the Biotek Powerwave XS Microplate spectrophotometer (BioTek Instruments, Inc., Winooski, VT, US). The plate was incubated at rt in an orbital shaker and absorbance measured every 3 min.
Plasma crystallization was assessed based on slope measurement in the linear range between 6 and 24 min from plots of increase in absorbance versus logarithm of time. The efficacy of different myo-inositol phosphates derivatives in preventing in vitro formation of calcium phosphate crystals was assessed in human plasma samples using the slopes obtained between 6- and 24-min. Inhibition of crystallization was measured by comparing the slopes of the control sample (blank plasma) with those of samples containing the inhibitor as shown below: […]

[2] = tested on: interstitial cells from aortic human valves (VIC); experiment: Calcification of interstitial cells from calcified human aortic valves (Alizarin Red); type: cell-based; settings: 1, 3, 10, 30, 100 μM; 3 weeks osteodifferentiation media; FIG. 15
Procedure: Calcification was measured by Alizarin Red staining and quantified spectrophotometrically as relative calcification. Values are shown as dot plots with mean. A one-way ANOVA for parametric distributions (IP6) with DMS post-test statistical analysis was performed. For not normally distributed results (Compound 1, Compound 3, and Compound 6), a nonparametric one-way ANOVA (Kruskal-Wallis test) with Dunn's post-test was applied, p<0.05 was considered statistically significant.
The dose-response efficacy of IP4-4,6 derivatives in the treatment of calcified aortic human valves was analyzed using an in vitro model (Zabirnyk A, et al., Vasc Pharmacol 2019; 122-123, 106583, doi:10.1016/j.vph.2019.106583). The model evaluated the effects of IP6, Compound 1, Compound 3, and Compound 6 on the calcification of interstitial cells from aortic human valves (VIC).
Human calcified aortic valve leaflets were obtained during aortic valve replacement and were harvested. After the removal of the valve endothelial cells, VIC were isolated. The leaflets were placed in 30 mL of basic growth medium (DMEM), supplemented with 10% fetal bovine serum (FBS) and 50 μg/mL gentamycin with the addition of 1 mg/mL collagenase II. The cells were incubated overnight at 37° C. with 5% CO2. Next day, the digested tissue was homogenized by pipetting with a serological pipet and centrifuged at 300 g for 5 min and the supernatant carefully removed by aspiration.
The pellet was washed in 10 mL of fresh DMEM and centrifuged as described previously. The supernatant was removed by aspiration, the cell pellet was resuspended in basic growth media and seeded in […]. VIC were cultured at 37° C. and 5% CO2 with growth media changed twice a week until they reached ~90% confluency. Cells were passaged at ratio of 1:2, propagated and frozen. […]
Alizarin Red staining was performed to assess calcification. […] To quantify calcium accumulation, Alizarin Red staining was extracted and measured spectrophotometrically. […]

For “4,6-O-di(tetradecyl)-myo-inositol-1,2,3,5-tetrakis(phosphate) octasodium salt [Compound 3]”, the EC50 [1] was at most 5 µM and the “Inhibition of the calcification of VIC” value [2] was “effective in inhibiting the calcification of VIC in vitro in a dose-response manner”.

In the case of “4,6-O-dipentyl-myo-inositol-1,2,3,5-tetrakis(phosphate) octasodium salt [Compound 1]”, the EC50 [1] is reported as at most 5 µM and the “Inhibition of the calcification of VIC” value [2] is reported as “effective in inhibiting the calcification of VIC in vitro in a dose-response manner”.

With O=P([O-])([O-])O[C@@H]1[C@@H](OCCCCCO)[C@H](OP(=O)([O-])[O-])[C@H](OP(=O)([O-])[O-])[C@H](OP(=O)([O-])[O-])[C@H]1OCCCCCO.[Na+].[Na+].[Na+].[Na+].[Na+].[Na+].[Na+].[Na+] [Compound 6, 4,6-O-bis(5-hydroxypentyl)-myo-inositol-1,2,3,5-tetrakis(phosphate) octasodium salt] the EC50 [1] was at most 5 µM and the “Inhibition of the calcification of VIC” value [2] was “effective in inhibiting the calcification of VIC in vitro in a dose-response manner”.

Reference: US20260337212A1, “IP4-4,6 SUBSTITUTED DERIVATIVE COMPOUNDS FOR USE IN THE TREATMENT, INHIBITION OF PROGRESSION, AND PREVENTION OF ECTOPIC CALCIFICATION” (SANIFIT THERAPEUTICS, S.A., priority 2022, published 2026)
